Where two headings read alike, the source gives them in different places.
How the values were obtained:
[1] = tested on: human acute monocytic leukemia cell line MV-4-11; assay: Assay 2 (Cell Proliferation Assay), ATP quantitation (CellTiter-Glo); assay type: cell-based; conditions: MV-4-11 cells, read-out: Assay 2 (EC50, inhibition of cell proliferation)
Description: Potencies of inhibitor compounds against cell proliferation was assessed against the human acute monocytic leukemia cell line MV-4-11 (ATCC® CRL-9591™) based on ATP quantitation. MV-4-11 cells or toxicity control HL-60 cells (ATCC® CCL-240™) were incubated in 96-well tissue culture plates (1.67×10^4 cells in 200 μL culture media containing 10% FBS per well) with or without test compound for 72 h at 37° C., 5% CO2. After incubation, each well was mixed by pipetting and 95 μL from each well was transferred to a well in 96-well black OptiPlate® plates (PerkinElmer). An equal volume of CellTiter-Glo® Luminescent Cell Viability Assay reagent (Promega) was added to each well, followed by mixing for 5 min on an orbital plate shaker. Luminescence was measured on a Wallac EnVision 2104 Multilabel Reader (PerkinElmer) to quantitate ATP. Percent inhibition of cell proliferation by test compounds was calculated based on uninhibited cell growth (DMSO) versus cells treated with a potent menin inhibitor at a concentration yielding at least 100×LD50.

[2] = target: T1, menin/MLL binding (biotinylated wild-type or mutated menin and MLL-AF9 fusion protein) (Homo sapiens, UniProt O00255); assay: Assay 1 (Binding Assay): AlphaLISA menin/MLL binding; conditions: 5 nM biotinylated menin, MLL-AF9-FLAG lysate
T1 construct: biotinylated (1) wild-type menin or (2) mutated menin (described in Nature (2012) Vol. 482, pp. 542-548); fused on or other part: Biotin attached chemically (Sulfo-NHS-Biotin); no fused second protein is printed for menin
T1 sequence (O00255 1-459 limits assumed): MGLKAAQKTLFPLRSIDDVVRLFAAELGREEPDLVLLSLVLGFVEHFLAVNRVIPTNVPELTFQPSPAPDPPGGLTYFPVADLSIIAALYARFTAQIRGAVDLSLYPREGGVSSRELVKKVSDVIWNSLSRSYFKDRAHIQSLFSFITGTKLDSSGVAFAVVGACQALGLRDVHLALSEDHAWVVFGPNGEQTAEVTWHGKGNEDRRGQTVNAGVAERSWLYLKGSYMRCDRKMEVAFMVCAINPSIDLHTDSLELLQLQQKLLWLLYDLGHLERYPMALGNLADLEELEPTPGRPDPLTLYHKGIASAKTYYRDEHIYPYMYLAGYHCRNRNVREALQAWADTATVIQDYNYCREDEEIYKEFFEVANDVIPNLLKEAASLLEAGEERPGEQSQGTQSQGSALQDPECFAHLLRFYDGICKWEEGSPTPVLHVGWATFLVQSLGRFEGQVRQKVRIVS
How it was run: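 Biotinylated E. coli-expressed menin (wild-type or mutant), 5 nM, incubated 30 min RT with compound and HEK293 lysate of MLL1-1,396–AF9-FLAG in pH 7.4 Tris buffer, 5% DMSO, 1 mM DTT. Anti-FLAG acceptor and streptavidin donor beads added, 60 min RT, AlphaLISA signal read. IC50 from four-parameter fit of % inhibition.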

| SMILES | EC50 ([1]; 72 h) | IC50 [2] | EC50 ([1]; Homo sapiens, MV4-11, 72 h) |
| --- | --- | --- | --- |
| Cc1c(CN2CCC(c3cn(-c4ccc(F)cc4C(=O)N(C)C(C)C)c4cnccc34)CC2)ccc2[nH]c(C#N)cc12 [Example 2, 2-(3-(1-((2-cyano-4-methyl-1H-indol-5-yl)methyl)piperidin-4-yl)-1H-pyrrolo[2,3-c]pyridin-1-yl)-5-fluoro-N-isopropyl-N-methylbenzamide] |  | < 100 nM | < 100 nM |
| CC(C)N(C)C(=O)c1cc(F)ccc1-n1cc(C2CCN(CC3CCOCC3)CC2)c2ccncc21 [Example 4, 5-fluoro-N-isopropyl-N-methyl-2-(3-(1-((tetrahydro-2H-pyran-4-yl)methyl)piperidin-4-yl)-1H-pyrrolo[2,3-c]pyridin-1-yl)benzamide] |  | < 100 nM | ≥ 1000 nM |
| CC(C)N(C)C(=O)c1cc(F)ccc1-n1cc(C2CCN(Cc3ccc4[nH]c(=O)[nH]c4c3)CC2)c2ccncc21 [Example 5, 5-fluoro-N-isopropyl-N-methyl-2-(3-(1-((2-oxo-2,3-dihydro-1H-benzo[d]imidazol-5-yl)methyl)piperidin-4-yl)-1H-pyrrolo[2,3-c]pyridin-1-yl)benzamide] |  | < 100 nM | 100 to 1000 nM |
| CC(C)N(C)C(=O)c1cc(F)ccc1-n1cc(C2CCN(CCC3CCOCC3)CC2)c2ccncc21 [Example 6, 5-fluoro-N-isopropyl-N-methyl-2-(3-(1-(2-(tetrahydro-2H-pyran-4-yl)ethyl)piperidin-4-yl)-1H-pyrrolo[2,3-c]pyridin-1-yl)benzamide] |  | < 100 nM | 100 to 1000 nM |
| CC(C)N(C)C(=O)c1cc(F)ccc1-n1cc(C2CCN(Cc3ccc4[nH]c(C#N)cc4c3)CC2)c2ccncc21 [Example 7, 2-(3-(1-((2-cyano-1H-indol-5-yl)methyl)piperidin-4-yl)-1H-pyrrolo[2,3-c]pyridin-1-yl)-5-fluoro-N-isopropyl-N-methylbenzamide] |  | < 100 nM | < 100 nM |
| CC(C)N(C)C(=O)c1cc(F)ccc1-n1cc(C2CCN(Cc3ccc4cc(C#N)[nH]c4c3)CC2)c2ccncc21 [Example 8, 2-(3-(1-((2-cyano-1H-indol-6-yl)methyl)piperidin-4-yl)-1H-pyrrolo[2,3-c]pyridin-1-yl)-5-fluoro-N-isopropyl-N-methylbenzamide] |  | < 100 nM | < 100 nM |
| CC(C)N(C)C(=O)c1cc(F)ccc1-n1cc(C2CCN(Cc3ccc(F)cc3)CC2)c2ccncc21 [Example 9, 5-fluoro-2-(3-(1-(4-fluorobenzyl)piperidin-4-yl)-1H-pyrrolo[2,3-c]pyridin-1-yl)-N-isopropyl-N-methylbenzamide] |  | < 100 nM | 100 to 1000 nM |
| CC(C)N(C)C(=O)c1cc(F)ccc1-n1cc(C2CCN(Cc3ccc(Cl)cc3)CC2)c2ccncc21 [Example 10, 2-(3-(1-(4-chorobenzyl)piperidin-4-yl)-1H-pyrrolo[2,3-c]pyridin-1-yl)-5-fluoro-N-isopropyl-N-methylbenzamide] |  | < 100 nM | 100 to 1000 nM |
| CC(C)N(C)C(=O)c1cc(F)ccc1-n1cc(C2CCN(Cc3ccc(C#N)cc3)CC2)c2ccncc21 [Example 12, 2-(3-(1-(4-cyanobenzyl)piperidin-4-yl)-1H-pyrrolo[2,3-c]pyridin-1-yl)-5-fluoro-N-isopropyl-N-methylbenzamide] |  | < 100 nM | 100 to 1000 nM |

Now from value to compound:

| EC50 ([1]; 72 h) | IC50 [2] | EC50 ([1]; Homo sapiens, MV4-11, 72 h) | SMILES |
| --- | --- | --- | --- |
| 100 to 1000 nM | < 100 nM |  | CC(C)N(C)C(=O)c1cc(F)ccc1-n1cc(C2CCC(NCc3ccc4[nH]c(=O)[nH]c4c3)CC2)c2ccncc21 (single isomer, unassigned) [Example 60, 5-fluoro-N-isopropyl-N-methyl-2-(3-(4-(((2-oxo-2,3-dihydro-1H-benzo[d]imidazol-5-yl)methyl)amino)cyclohexyl)-1H-pyrrolo[2,3-c]pyridin-1-yl)benzamide] |
| ≥ 1000 nM | < 100 nM |  | CC(C)N(C)C(=O)c1cc(F)ccc1-n1cc(C2CCC(NCc3ccc4[nH]c(=O)[nH]c4c3)CC2)c2ccncc21 (single isomer, unassigned) [Example 60A, 5-fluoro-N-isopropyl-N-methyl-2-(3-(4-(((2-oxo-2,3-dihydro-1H-benzo[d]imidazol-5-yl)methyl)amino)cyclohexyl)-1H-pyrrolo[2,3-c]pyridin-1-yl)benzamide] |
| 100 to 1000 nM | < 100 nM |  | CC(C)N(C)C(=O)c1cc(F)ccc1-n1cc(C2CCC(NCC3CCC(NS(C)(=O)=O)CC3)CC2)c2ccncc21 (single isomer, unassigned) [Example 61, 5-fluoro-N-isopropyl-N-methyl-2-(3-(4-(((4-(methylsulfonamido)cyclohexyl)methyl)amino)cyclohexyl)-1H-pyrrolo[2,3-c]pyridin-1-yl)benzamide] |
| ≥ 1000 nM | < 100 nM |  | CC(C)N(C)C(=O)c1cc(F)ccc1-n1cc(C2CCC(NCC3CCC(NS(C)(=O)=O)CC3)CC2)c2ccncc21 (single isomer, unassigned) [Example 62, 5-fluoro-N-isopropyl-N-methyl-2-(3-(4-(((4-(methylsulfonamido)cyclohexyl)methyl)amino)cyclohexyl)-1H-pyrrolo[2,3-c]pyridin-1-yl)benzamide] |
|  | < 100 nM | < 100 nM | CC(C)N(C)C(=O)c1cc(F)ccc1-n1cc(C2CCC(N(C)CC3CCC(NS(C)(=O)=O)CC3)CC2)c2ccncc21 (single isomer, unassigned) [Example 128, 5-fluoro-N-isopropyl-N-methyl-2-(3-(4-(methyl((4-(methylsulfonamido)cyclohexyl)methyl)amino)cyclohexyl)-1H-pyrrolo[2,3-c]pyridin-1-yl)benzamide] |
|  | < 100 nM | 100 to 1000 nM | Cc1ccccc1CN1CCC(c2cn(-c3ccc(F)cc3C(=O)N(C)C(C)C)c3cnccc23)CC1 [Example 14, 5-fluoro-N-isopropyl-N-methyl-2-(3-(1-(2-methylbenzyl)piperidin-4-yl)-1H-pyrrolo[2,3-c]pyridin-1-yl)benzamide] |
|  | < 100 nM | 100 to 1000 nM | CC(C)N(C)C(=O)c1cc(F)ccc1-n1cc(C2CCN(Cc3ccccc3Cl)CC2)c2ccncc21 [Example 15, 2-(3-(1-(2-chlorobenzyl)piperidin-4-yl)-1H-pyrrolo[2,3-c]pyridin-1-yl)-5-fluoro-N-isopropyl-N-methylbenzamide] |
|  | < 100 nM | 100 to 1000 nM | CC(C)N(C)C(=O)c1cc(F)ccc1-n1cc(C2CCN(CC3CC(F)(F)C3)CC2)c2ccncc21 [Example 16, 2-(3-(1-((3,3-difluorocyclobutyl)methyl)piperidin-4-yl)-1H-pyrrolo[2,3-c]pyridin-1-l)-5-fluoro-N-isopropyl-N-methylbenzamide] |
|  | < 100 nM | 100 to 1000 nM | CC(=O)N[C@H]1CC[C@H](CCN2CCC(c3cn(-c4ccc(F)cc4C(=O)N(C)C(C)C)c4cnccc34)CC2)CC1 [Example 18, 2-(3-(1-(2-(trans-4-acetamidocyclohexyl)ethyl)piperidin-4-yl)-1H-pyrrolo[2,3-c]pyridin-1-yl)-5-fluoro-N-isopropyl-N-methylbenzamide] |
|  | < 100 nM | 100 to 1000 nM | CC(C)N(C)C(=O)c1cc(F)ccc1-n1cc(C2CCN(CC[C@H]3CC[C@H](NC(=O)OC(C)(C)C)CC3)CC2)c2ccncc21 [Example 18A, tert-butyl (trans-4-(2-(4-(1-(4-fluoro-2-(isopropyl(methyl)carbamoyl)phenyl)-1H-pyrrolo[2,3-c]pyridin-3-yl)piperidin-1-yl)ethyl)cyclohexyl)carbamate] |
|  | < 100 nM | < 100 nM | CC(C)N(C)C(=O)c1cc(F)ccc1-n1cc(C2CCN(CC[C@H]3CC[C@H](NS(C)(=O)=O)CC3)CC2)c2ccncc21 [Example 19, 5-fluoro-N-isopropyl-N-methyl-2-(3-(1-(2-(trans-4-(methylsulfonamido)cyclohexyl)ethyl)piperidin-4-yl)-1H-pyrrolo[2,3-c]pyridin-1-yl)benzamide] |
|  | < 100 nM | 100 to 1000 nM | CC(=O)N[C@H]1CC[C@H](CN2CCC(c3cn(-c4ccc(F)cc4C(=O)N(C)C(C)C)c4cnccc34)CC2)CC1 [Example 20, 2-(3-(1-(((1r,4r)-4-acetamidocyclohexyl)methyl)piperidin-4-yl)-1H-pyrrolo[2,3-c]pyridin-1-yl)-5-fluoro-N-isopropyl-N-methylbenzamide] |

— patent US10899758B2, “Inhibitors of the menin-MLL interaction” (Vitae Pharmaceuticals, LLC, priority 2016, dated 2021)
